Assays:
[1] = molecular target: RBP4 (Homo sapiens (Human), UniProt P02753); assay: Scintillation proximity RBP4 binding assay (SPA); settings: 10 nM 3H-Retinol, 50 nM biotinylated RBP4
Protocol: Scintillation Proximity RBP4 Binding Assay
Untagged human RBP4 purified from urine of tubular proteinuria patients was purchased from Fitzgerald Industries International. It was biotinylated using the EZ-Link Sulfo-NHS-LC-Biotinylation kit from Pierce following the manufacturer's recommendations. Binding experiments were performed in 96-well plates (OptiPlate, PerkinElmer) in a final assay volume of 100 μl per well in SPA buffer (1×PBS, pH 7.4, 1 mM EDTA, 0.1% BSA, 0.5% CHAPS). The reaction mix contained 10 nM ^3H-Retinol (48.7 Ci/mmol; PerkinElmer), 0.3 mg/well Streptavidin-PVT beads, 50 nM biotinylated RBP4 and a test compound. Nonspecific binding was determined in the presence of 20 μM of unlabeled retinol.
The reaction mix was assembled in the dark under dim red light. The plates were sealed with clear tape (TopSeal-A: 96-well microplate, PerkinElmer), wrapped in the aluminum foil, and allowed to equilibrate 6 hours at room temperature followed by overnight incubation at +4° C. Radiocounts were measured using a TopCount NXT counter (Packard Instrument Company).

[2] = molecular target: RBP4-TTR interaction (Homo sapiens (Human), UniProt P02753); assay: TR-FRET (HTRF) assay for retinol-induced RBP4-TTR interaction; type: biochemical; settings: in the presence of 1 μM retinol; read-out: HTRF assay for antagonists of RBP4-TTR interaction: IC50
Excerpt: TR-FRET Assay for Retinol-Induced RBP4-TTR Interaction
Binding of a desired RBP4 antagonist displaces retinol and induces hindrance for RBP4-TTR interaction resulting in the decreased FRET signal (FIG. 7). Bacterially expressed MBP-RBP4 and untagged TTR were used in this assay. […] Following cell lysis, recombinant RBP4 was purified from the soluble fraction using the ACTA FPLC system (GE Healthcare) equipped with the 5-ml the MBP Trap HP column. Human untagged TTR was purchased from Calbiochem. Untagged TTR was labeled directly with Eu^3+ Cryptate-NHS using the HTRF Cryptate Labeling kit from CisBio following the manufacturer's recommendations. HTRF assay was performed in white low volume 384 well plates (Greiner-Bio) in a final assay volume of 16 μl per well. The reaction buffer contained 10 mM Tris-HCl pH 7.5, 1 mM DTT, 0.05% NP-40, 0.05% Prionex, 6% glycerol, and 400 mM KF. […] Titration of test compounds in this assay was conducted in the presence of 1 μM retinol. All reactions were assembled in the dark under dim red light and incubated overnight at +4° C. wrapped in aluminum foil. TR-FRET signal was measured in the SpectraMax M5e Multimode Plate Reader (Molecular Device). […] The TR-FRET signal was expressed as the ratio of fluorescence intensity: Flu665/Flu620×10,000.

COC(=O)N1CCc2[nH]nc(C(=O)N3CCC(c4cccc(F)c4C(F)(F)F)CC3)c2C1 [Compound 68]
IC50 [1]: < 1.37 nM | IC50 [2]: 36.2 nM
